Assay in all cases: relative viability (nuclei count vs DMSO), 5 days (fraction); higher = more cells survive
Compound in the assay “Sorafenib + Pemetrexed”: CNC(=O)c1cc(Oc2ccc(NC(=O)Nc3ccc(Cl)c(C(F)(F)F)c3)cc2)ccn1 [Sorafenib] + Nc1nc2[nH]cc(CCc3ccc(C(=O)N[C@@H](CCC(=O)O)C(=O)O)cc3)c2c(=O)[nH]1 [Pemetrexed] (partner 0.2 µM)
A digest of the protocol:
(§1)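 Relative viability equals treated-well nuclei counts divided by vehicle-well nuclei counts. Counts came from 4× images of lung cancer cell lines grown in 1536-well plates for 5 days after pin-tool dosing on the day after seeding. Dosing used one drug alone or a fixed anchor-drug dose plus five library-drug doses (not always all listed) in √10 steps, and values are medians of duplicate plates.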

Compound in the assay “Sorafenib + Decitabine”: CNC(=O)c1cc(Oc2ccc(NC(=O)Nc3ccc(Cl)c(C(F)(F)F)c3)cc2)ccn1 [Sorafenib] + Nc1ncn([C@H]2C[C@H](O)[C@@H](CO)O2)c(=O)n1 [Decitabine] (partner 2 µM)
A digest of the protocol:
as §1

Compound in the assay “Sorafenib + Navitoclax”: CNC(=O)c1cc(Oc2ccc(NC(=O)Nc3ccc(Cl)c(C(F)(F)F)c3)cc2)ccn1 [Sorafenib] + CC1(C)CCC(c2ccc(Cl)cc2)=C(CN2CCN(c3ccc(C(=O)NS(=O)(=O)c4ccc(N[C@H](CCN5CCOCC5)CSc5ccccc5)c(S(=O)(=O)C(F)(F)F)c4)cc3)CC2)C1 [Navitoclax] (partner 0.5 µM)
A digest of the protocol:
as §1

Compound in the assay “Sorafenib + Vorinostat”: CNC(=O)c1cc(Oc2ccc(NC(=O)Nc3ccc(Cl)c(C(F)(F)F)c3)cc2)ccn1 [Sorafenib] + O=C(CCCCCCC(=O)Nc1ccccc1)NO [Vorinostat] (partner 1 µM)
A digest of the protocol: as §1

Compound in the assay “Sorafenib + Tozasertib”: CNC(=O)c1cc(Oc2ccc(NC(=O)Nc3ccc(Cl)c(C(F)(F)F)c3)cc2)ccn1 [Sorafenib] + Cc1cc(Nc2cc(N3CCN(C)CC3)nc(Sc3ccc(NC(=O)C4CC4)cc3)n2)n[nH]1 [Tozasertib] (partner 0.1 µM)
An outline of the steps:
as §1

For the cell line NCI-H1563, the relative viability with Sorafenib + Pemetrexed (first compound 0.08 µM) came to 0.969; with Sorafenib + Pemetrexed (first compound 0.253 µM), 0.654; with Sorafenib + Pemetrexed (first compound 2.53 µM) it was 0.775; with Sorafenib + Pemetrexed (first compound 8 µM), 0.659.

With NCI-H1944, the relative viability with Sorafenib + Pemetrexed (first compound 0.08 µM) was determined as 0.697; with Sorafenib + Pemetrexed (first compound 0.253 µM), 0.557; in the assay with Sorafenib + Pemetrexed (first compound 2.53 µM), 0.735; with Sorafenib + Pemetrexed (first compound 8 µM), 0.438; with Sorafenib + Decitabine (first compound 0.253 µM) it was 0.47; with Sorafenib + Decitabine (first compound 2.53 µM) it was 0.482. The relative viability with Sorafenib + Decitabine (first compound 8 µM) came out at 0.38; with Sorafenib + Navitoclax (first compound 0.08 µM), 1.06; in the assay with Sorafenib + Navitoclax (first compound 0.253 µM) it was 1.06; with Sorafenib + Navitoclax (first compound 2.53 µM) it was 1.18; in the assay with Sorafenib + Navitoclax (first compound 8 µM), 0.872; with Sorafenib + Vorinostat (first compound 0.08 µM), 0.539. Also, the relative viability was found to be 0.497 with Sorafenib + Vorinostat (first compound 0.253 µM); 0.626 in the assay with Sorafenib + Vorinostat (first compound 2.53 µM); 0.417 in the assay with Sorafenib + Vorinostat (first compound 8 µM); 0.281 in the assay with Sorafenib + Tozasertib (first compound 0.08 µM); 0.292 with Sorafenib + Tozasertib (first compound 0.253 µM); 0.266 with Sorafenib + Tozasertib (first compound 2.53 µM). Further, in the assay with Sorafenib + Tozasertib (first compound 8 µM), the relative viability was found to be 0.206.

Consider CAL-12T, for which the relative viability with Sorafenib + Pemetrexed (first compound 0.08 µM) turned out to be 1.22; with Sorafenib + Pemetrexed (first compound 0.253 µM) it was 1.1; in the assay with Sorafenib + Pemetrexed (first compound 2.53 µM), 1.01; in the assay with Sorafenib + Pemetrexed (first compound 8 µM) it was 1.13; with Sorafenib + Navitoclax (first compound 0.08 µM), 1.32; with Sorafenib + Navitoclax (first compound 0.253 µM), 1.19. The relative viability was 1.06 in the assay with Sorafenib + Navitoclax (first compound 2.53 µM); 0.64 with Sorafenib + Navitoclax (first compound 8 µM); 0.723 with Sorafenib + Vorinostat (first compound 0.08 µM); 0.722 in the assay with Sorafenib + Vorinostat (first compound 0.253 µM); 0.72 in the assay with Sorafenib + Vorinostat (first compound 2.53 µM); 0.494 with Sorafenib + Vorinostat (first compound 8 µM). Besides, the relative viability is 0.354 in the assay with Sorafenib + Tozasertib (first compound 0.08 µM), 0.284 with Sorafenib + Tozasertib (first compound 0.253 µM), 0.271 in the assay with Sorafenib + Tozasertib (first compound 2.53 µM) and 0.219 with Sorafenib + Tozasertib (first compound 8 µM).

With NCI-H650, the relative viability with Sorafenib + Pemetrexed (first compound 0.08 µM) was 0.928; with Sorafenib + Pemetrexed (first compound 0.253 µM), 0.799; with Sorafenib + Pemetrexed (first compound 2.53 µM) it was 0.904; in the assay with Sorafenib + Pemetrexed (first compound 8 µM), 0.795; in the assay with Sorafenib + Decitabine (first compound 0.08 µM), 0.343; in the assay with Sorafenib + Decitabine (first compound 0.253 µM), 0.295. Besides, the relative viability with Sorafenib + Decitabine (first compound 2.53 µM) turned out to be 0.34; with Sorafenib + Decitabine (first compound 8 µM), 0.278; with Sorafenib + Vorinostat (first compound 0.08 µM), 0.855; with Sorafenib + Vorinostat (first compound 0.253 µM), 0.257; in the assay with Sorafenib + Vorinostat (first compound 2.53 µM), 0.371; in the assay with Sorafenib + Vorinostat (first compound 8 µM), 0.449. In addition, the relative viability in the assay with Sorafenib + Tozasertib (first compound 0.08 µM) was found to be 0.718; in the assay with Sorafenib + Tozasertib (first compound 0.253 µM), 0.659; in the assay with Sorafenib + Tozasertib (first compound 2.53 µM), 0.62; in the assay with Sorafenib + Tozasertib (first compound 8 µM) it was 0.592.

With NCI-H1703, the relative viability was 1.03 with Sorafenib + Navitoclax (first compound 0.08 µM), 0.319 in the assay with Sorafenib + Navitoclax (first compound 0.253 µM), 0.215 with Sorafenib + Navitoclax (first compound 2.53 µM) and 0.148 in the assay with Sorafenib + Navitoclax (first compound 8 µM).

Regarding NCI-H727, the relative viability in the assay with Sorafenib + Decitabine (first compound 0.08 µM) amounted to 0.988; with Sorafenib + Decitabine (first compound 0.253 µM), 0.947; in the assay with Sorafenib + Decitabine (first compound 2.53 µM) it was 0.805; in the assay with Sorafenib + Decitabine (first compound 8 µM) it was 0.781; in the assay with Sorafenib + Navitoclax (first compound 0.08 µM), 0.604; in the assay with Sorafenib + Navitoclax (first compound 0.253 µM), 0.632. Further, the relative viability with Sorafenib + Navitoclax (first compound 2.53 µM) turned out to be 0.675; in the assay with Sorafenib + Navitoclax (first compound 8 µM) it was 0.369; with Sorafenib + Vorinostat (first compound 0.08 µM), 1.38; with Sorafenib + Vorinostat (first compound 0.253 µM), 1.11; in the assay with Sorafenib + Vorinostat (first compound 2.53 µM), 1.23; in the assay with Sorafenib + Vorinostat (first compound 8 µM), 1.25. Further, the relative viability with Sorafenib + Tozasertib (first compound 0.08 µM) is 0.643; with Sorafenib + Tozasertib (first compound 0.253 µM) it was 0.638; with Sorafenib + Tozasertib (first compound 2.53 µM), 0.555; with Sorafenib + Tozasertib (first compound 8 µM), 0.487.

In the case of NCI-H1792, the relative viability with Sorafenib + Pemetrexed (first compound 0.08 µM) amounted to 0.97; with Sorafenib + Pemetrexed (first compound 0.253 µM) it was 0.527; with Sorafenib + Pemetrexed (first compound 2.53 µM), 0.578; with Sorafenib + Pemetrexed (first compound 8 µM), 0.567; with Sorafenib + Decitabine (first compound 0.08 µM) it was 0.507; with Sorafenib + Decitabine (first compound 0.253 µM), 0.492. Moreover, the relative viability came to 0.489 in the assay with Sorafenib + Decitabine (first compound 2.53 µM); 0.456 in the assay with Sorafenib + Decitabine (first compound 8 µM); 0.671 with Sorafenib + Navitoclax (first compound 0.08 µM); 0.51 with Sorafenib + Navitoclax (first compound 0.253 µM); 0.585 with Sorafenib + Navitoclax (first compound 2.53 µM); 0.544 with Sorafenib + Navitoclax (first compound 8 µM).

Consider SW 900, for which the relative viability in the assay with Sorafenib + Pemetrexed (first compound 0.08 µM) stood at 0.462; with Sorafenib + Pemetrexed (first compound 0.253 µM), 0.479; with Sorafenib + Pemetrexed (first compound 2.53 µM) it was 0.517; in the assay with Sorafenib + Pemetrexed (first compound 8 µM) it was 0.471; with Sorafenib + Decitabine (first compound 0.08 µM), 0.397; with Sorafenib + Decitabine (first compound 0.253 µM), 0.56. The relative viability in the assay with Sorafenib + Decitabine (first compound 2.53 µM) turned out to be 0.418; with Sorafenib + Decitabine (first compound 8 µM), 0.475; in the assay with Sorafenib + Vorinostat (first compound 0.08 µM), 0.71; in the assay with Sorafenib + Vorinostat (first compound 0.253 µM), 0.398; with Sorafenib + Vorinostat (first compound 2.53 µM), 0.72; with Sorafenib + Vorinostat (first compound 8 µM) it was 0.618. Besides, the relative viability with Sorafenib + Tozasertib (first compound 0.08 µM) was 0.718; with Sorafenib + Tozasertib (first compound 0.253 µM), 0.467; with Sorafenib + Tozasertib (first compound 2.53 µM), 0.402; in the assay with Sorafenib + Tozasertib (first compound 8 µM), 0.316.

Turning to NCI-H2228, the relative viability was 0.361 with Sorafenib + Pemetrexed (first compound 0.08 µM); 0.323 with Sorafenib + Pemetrexed (first compound 0.253 µM); 0.244 in the assay with Sorafenib + Pemetrexed (first compound 2.53 µM); 0.31 with Sorafenib + Pemetrexed (first compound 8 µM); 0.784 with Sorafenib + Navitoclax (first compound 0.08 µM); 0.706 in the assay with Sorafenib + Navitoclax (first compound 0.253 µM). For the same cell line, the relative viability with Sorafenib + Navitoclax (first compound 2.53 µM) came to 0.828; with Sorafenib + Navitoclax (first compound 8 µM) it was 0.477; with Sorafenib + Vorinostat (first compound 0.08 µM), 0.672; with Sorafenib + Vorinostat (first compound 0.253 µM) it was 0.598; in the assay with Sorafenib + Vorinostat (first compound 2.53 µM), 0.265; in the assay with Sorafenib + Vorinostat (first compound 8 µM), 0.315. The relative viability with Sorafenib + Tozasertib (first compound 0.08 µM) came out at 0.273; with Sorafenib + Tozasertib (first compound 0.253 µM), 0.283; in the assay with Sorafenib + Tozasertib (first compound 2.53 µM), 0.18; with Sorafenib + Tozasertib (first compound 8 µM), 0.182.

On to NCI-H661, for which the relative viability with Sorafenib + Pemetrexed (first compound 0.08 µM) stood at 0.918; with Sorafenib + Pemetrexed (first compound 0.253 µM) it was 0.688; with Sorafenib + Pemetrexed (first compound 2.53 µM), 0.883; in the assay with Sorafenib + Pemetrexed (first compound 8 µM) it was 0.427; with Sorafenib + Decitabine (first compound 0.08 µM) it was 0.57; with Sorafenib + Decitabine (first compound 0.253 µM), 0.503. Moreover, the relative viability with Sorafenib + Decitabine (first compound 2.53 µM) is 0.531; in the assay with Sorafenib + Decitabine (first compound 8 µM), 0.356; with Sorafenib + Vorinostat (first compound 0.08 µM) it was 0.818; in the assay with Sorafenib + Vorinostat (first compound 0.253 µM) it was 0.757; in the assay with Sorafenib + Vorinostat (first compound 2.53 µM), 0.796; with Sorafenib + Vorinostat (first compound 8 µM), 0.441. For the same cell line, the relative viability with Sorafenib + Tozasertib (first compound 0.08 µM) stood at 0.35; with Sorafenib + Tozasertib (first compound 0.253 µM), 0.378; with Sorafenib + Tozasertib (first compound 2.53 µM) it was 0.333.

As for LCLC-103H, the relative viability stood at 0.526 in the assay with Sorafenib + Pemetrexed (first compound 0.08 µM); 0.437 with Sorafenib + Pemetrexed (first compound 0.253 µM); 0.422 with Sorafenib + Pemetrexed (first compound 2.53 µM); 0.451 with Sorafenib + Pemetrexed (first compound 8 µM); 0.701 with Sorafenib + Decitabine (first compound 0.08 µM); 0.774 with Sorafenib + Decitabine (first compound 0.253 µM). In addition, the relative viability was found to be 0.771 with Sorafenib + Decitabine (first compound 2.53 µM); 0.698 with Sorafenib + Decitabine (first compound 8 µM); 0.813 with Sorafenib + Vorinostat (first compound 0.08 µM); 0.75 with Sorafenib + Vorinostat (first compound 0.253 µM); 0.778 in the assay with Sorafenib + Vorinostat (first compound 2.53 µM); 0.737 in the assay with Sorafenib + Vorinostat (first compound 8 µM). For the same cell line, the relative viability with Sorafenib + Tozasertib (first compound 0.08 µM) stood at 0.489; in the assay with Sorafenib + Tozasertib (first compound 0.253 µM), 0.548; in the assay with Sorafenib + Tozasertib (first compound 2.53 µM), 0.419; in the assay with Sorafenib + Tozasertib (first compound 8 µM) it was 0.569.

The values above are taken from the supplement of paper PMC10307832.
